Measurements published in patent US8791098B2 (priority 2008, dated 2014).
Values after ≈ are worked out from the molar mass of the structure shown. Read-outs that look alike come from different tables or passages of the source.

What was measured:
[1] = tested on: U-2 OS human osteosarcoma cells; assay: cells; assay type: cell-based; conditions: Homo sapiens, U2OS, average of two measurements, read-out: IC50
Procedure: (§1) Cytotoxicity testing of pretubulysin (AU827), N-desmethyl-pretubulysin (AU816) and Tubulysin A and D was performed as follows: Cells were seeded at 6×10^3 cells per well of 96-well plates in 180 μl complete medium and directly treated with varying concentrations of (pre-)tubulysins diluted in methanol. Each compound was tested in duplicate as well as the internal methanol control. After 5 d incubation, 20 μl of 5 mg/ml MTT (Thiazolyl blue tetrazolium bromide) in PBS was added per well and it was further incubated for 2 h at 37° C. The medium was then discarded and cells were washed with 100 μl PBS before adding 100 μl 2-propanol/10 N HCl (250:1) in order to dissolve formazan granules.
(§2) The absorbance at 570 nm was measured using a microplate reader (EL808, Bio-Tek Instruments Inc.), and cell viability was expressed as percentage relative to the respective methanol control. IC50 values were obtained by plotting relative growth inhibition in % against the compound concentration on a logarithmic scale. After sigmoidal curve fitting IC50 values can be determined. The IC50[per ml] are shown in the following table (values represent the average of two measurements):
Similarly cytotoxicity testing of Pretubulysin-related compounds in U-2 OS human osteosarcoma cells was performed and was further compared with AU 339 and AU 954, compounds mentioned in WO2008/106080 and WO2004/046170. The IC50 values are shown in the following table (values represent the average of two measurements): […]

[2] = tested on: SW-480; assay: Anti-proliferation MTT assay (Example 2, Table 1); assay type: cell-based; conditions: SW480; SW-480 human colon adenocarcinoma
[3] = tested on: A549; assay: cells; assay type: cell-based, human; conditions: Homo sapiens; A549, average of two measurements; read-out: IC50
Procedure: as §1
as §2, with “measurements): […]” for “measurements):”

[4] = tested on: A431; assay: cells; assay type: cell-based, human; conditions: Homo sapiens, A-431; A431, average of two measurements; read-out: IC50
Procedure: as §1
as §2, with “measurements): […]” for “measurements):”

[5] = tested on: K562; assay: cells; assay type: cell-based, human; conditions: Homo sapiens; K562, average of two measurements; read-out: IC50
Procedure: as §1
as §2, with “measurements): […]” for “measurements):”

[6] = tested on: SH-SY5Y; assay: cells; assay type: cell-based, human; conditions: Homo sapiens, average of two measurements, read-out: IC50
Procedure: as §1
as §2, with “measurements): […]” for “measurements):”

[7] = tested on: KB3.1; assay: cells; assay type: cell-based, human; conditions: Homo sapiens, KB 3-1; KB3.1, average of two measurements; read-out: IC50
Procedure: as §1
as §2, with “measurements): […]” for “measurements):”

[8] = tested on: HEK293T; assay: cells; assay type: cell-based, human; conditions: Homo sapiens, HEK-293T, average of two measurements, read-out: IC50
Procedure: as §1
as §2, with “measurements): […]” for “measurements):”

[9] = tested on: PtK2 cells; assay type: cell-based; conditions: for concentration at which effects on microtubules and spindle morphologies appear / concentration for complete de-polymerization (disappearance) of interphase microtubules: 24 hours incubation
Procedure: Cell staining: Ptk2 cells were seeded on round glass coverslips (13 mm in diameter) in 4-well plates. Cells were incubated with the drugs to the given times as indicated for each experiment. For staining the microtubules and the nuclei, cells were firstly fixed with cold (−20° C.) acetone/methanol (1:1) for 10 min. For labelling the microtubules, cells were incubated with a primary monoclonal antibody against α-tubulin (1:500 Sigam) for 45 min at 37° C., followed by a secondary anti-mouse IgG antibody conjugated with Alexa488 (1:2000; Molecular probes) under the same incubations conditions. The nuclei were stained with DAPI (1 μg/ml in PBS). The cells were washed with phosphate buffer saline (PBS) between incubations. Coverslips were mounted by using Prolong Antifade (Molecular Probes) and imaged through a fluorescence microscope (LSM-Zeiss) with appropriate filter set.
Tubulysin A and D are known to induce de-polymerization of the interphase microtubules of mammalian cells and additionally induce a multi-polar spindle pool in mitotic cells (Khalil, M. et al., Chembiochem. 7, 678-683 (2006); Sasse, F., Menche, D. Nat. Chem. Biol. 3, 87-89 (2007)). Here the effect of pre-tubulysin treatment on the morphologies of microtubules and microtubules related structures in PtK2 cells was tested. PtK2 cells were seeded onto glass cover clips in 4 well plates and cultivated for 24 or 48 hours under growth conditions. The cells were then treated with different concentrations of tubulysin A, tubulysin D, pre-tubulysin-816 or pre-tubulysin-827. The control cells were treated only with equivalent amount of methanol (solvent). The cells were thin incubated for further 24 hours before they were fixed as described under the methods section. Fixed cells were then washed with PBS and finally labeled with anti-α-tubulin primary antibodies followed by anti-mouse-alexa-488 secondary antibodies to visualize the microtubules. The nuclei were stained with DAPI.

[10] = tested on: HL-60 cells; assay: cells; conditions: Homo sapiens
Procedure: A given number of cells were cultivated in 96-well plates with serial dilutions of the drugs up to 100 ng/ml. Tubulysin A is used as a positive control, whereas methanol is used as a negative control. After 5 days of incubation the metabolic activities of the cells were measured using MTT-assay as described under the methods section.
The effect of pre-tubulysin 816 and 827 was tested with regard to the growth of other cell lines, including the mouse connective tissues fibroblast L929, the human lung carcinoma cell line A549, the human colon adenocarcinoma cell line SW-480, and the human histiocytic lymphoma cell line U937, in addition to the human myeloid leukemia cell line HL-60.

[11] = tested on: L929; assay: cells; assay type: cell-based, mouse; conditions: Mus musculus; L929, average of two measurements; read-out: IC50
Procedure: as §1
as §2, with “measurements): […]” for “measurements):”

[12] = comparison with prior art compounds

SMILES | IC50 [1] | IC50 [1, 12] | IC50 [2] | IC50 [3] | IC50 [4] | IC50 [5] | IC50 [6] | IC50 [7] | IC50 [8] | concentration at which effects on microtubules and spindle morphologies appear [9] | concentration for complete de-polymerization (disappearance) of interphase microtubules [9] | concentration for complete de-polymerization (disappearance) of interphase microtubules ([9]; listed as Pre-tubulysin-827) | IC50 ([10]; HL-60, 120 h) | IC50 ([10]; HL-60, read-out: IC50 value) | IC50 [11] | concentration for complete de-polymerization (disappearance) of interphase microtubules ([9]; listed as Pre-tubulysin-816) | effect on the interphase microtubules ([9]; concentrations up to 250 ng/ml, 24 h)
CC[C@H](C)[C@H](NC(=O)[C@H]1CCCCN1C)C(=O)N(C)[C@H](CCc1nc(C(=O)N[C@@H](Cc2ccccc2)C[C@H](C)C(=O)O)cs1)C(C)C [pre-tubulysin-827, pretubulysin] | 0.56 ng/mL (≈ 0.836 nM) | 0.56 ng/mL (≈ 0.836 nM) | 0.15 ng/mL (≈ 0.224 nM) | 4.35 ng/mL (≈ 6.49 nM) | 1.24 ng/mL (≈ 1.85 nM) | 0.35 ng/mL (≈ 0.522 nM) | 0.61 ng/mL (≈ 0.911 nM) | 2.32 ng/mL (≈ 3.46 nM) | 0.227 ng/mL (≈ 0.339 nM) | 50 ng/ml | ≥ 1 µg/mL | 1 µg/mL | 0.017 ng/mL (≈ 0.0254 nM) | 0.017 ng/mL (≈ 0.0254 nM) | 3.87 ng/mL (≈ 5.78 nM) | – | –
CC[C@H](C)[C@H](NC(=O)[C@H]1CCCCN1C)C(=O)N(C)[C@H](CCc1nc(C(=O)N[C@H](CCC(=O)O)Cc2ccccc2)cs1)C(C)C [pre-tubulysin-816, N-desmethyl-pretubulysin] | 3.23 ng/mL (≈ 4.92 nM) | 3.16 ng/mL (≈ 4.82 nM) | 1.37 ng/mL (≈ 2.09 nM) | 31.2 ng/mL (≈ 47.6 nM) | 0.34 ng/mL (≈ 0.518 nM) | 2.5 ng/mL (≈ 3.81 nM) | 2.9 ng/mL (≈ 4.42 nM) | 26.3 ng/mL (≈ 40.1 nM) | 1.68 ng/mL (≈ 2.56 nM) | ≥ 500 ng/ml | around 5 μg/ml | – | 0.15 ng/mL (≈ 0.229 nM) | 0.15 ng/mL (≈ 0.229 nM) | 40 ng/mL (≈ 60.9 nM) | 5 µg/mL | did not show any clear effect
